Common to all, as to assay: NCI tumour cell line growth inhibition, 48 h
In test [1] the test system is HOP-18 NSCLC.
In test [2] the test system is DMS 273 small cell lung.
Test [3] relates to HS 578T breast.
Test [4] deals with LXFL 529 NSCLC.
In test [5] the test system is MDA-N.
The test system of test [6] is XF 498 CNS.
In test [7] the test system is M19-MEL melanoma.
The test system of test [8] is DMS 114 small cell lung.
For test [9], the system named is T-47D breast.
Test [10] has as its system 786-0 renal.
Test [11] relates to KM20L2 colon.
Test [12] has as its system DLD-1 colon.
In test [13] the test system is SNB-78 CNS.
Test [14] deals with P388 leukemia.
Test [15] relates to P388/ADR leukemia.
In test [16] the test system is SN12K1 renal.
The subject of test [17] is RXF-631 renal.

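Grown in 96-well plates, cells were treated for 48 hours with each compound at five concentrations. Insufficient inhibition: endpoint recorded as highest concentration tested. TGI is the concentration that stops growth completely.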

As to `CCOC(=O)C(CC(C)C)NC(=O)C(N)Cc1ccc(N(CCCl)CCCl)cc1` (centres undefined), the TGI was 16.1 µM in test [1]; 13.2 µM in test [2]; 44.5 µM in [3]; 8.29 µM in [4]; 26.1 µM in test [5]; 3.87 µM in test [6]. For the same molecule, the TGI in test [7] is 4.57 µM; in [8], 7.54 µM; in test [9], 15.1 µM; in test [10], 6.81 µM; in test [11], 13.5 µM; in test [12] it was 8.27 µM.

For `NCCSC1(O)C(=O)c2ccccc2-c2ccccc21` (centres undefined), the TGI was 6.2 µM in test [3], 2.11 µM in [9] and 3.46 µM in test [10].

As to `CCCCN(CCCC)C1(c2cc3ccccc3s2)CCCCC1`, the TGI in [5] was 31.5 µM; in test [9], 34.7 µM; in test [10], 27.3 µM.

Take `CCOC(=O)c1csc(NC(=O)CCN2CCOCC2)n1`: the TGI in [5] and in test [9] was over 100 µM each time.

In the case of `Cc1cc(C)c(S(=O)(=O)N(CCCCCCN)OCCCON(CCCCCCN)S(=O)(=O)c2c(C)cc(C)cc2C)c(C)c1`, the TGI in [3] stood at 4.32 µM; in test [5] it was 3.61 µM.

For `N=C(N)SCCSC(=N)N`, the TGI in test [3], in test [5], in test [9] and in test [10] was over 100 µM throughout.

Turning to `Cc1cc2c(=O)c3ccc(Cl)cc3[nH]c2c(C(=O)O)c1C`, the TGI in [1], in test [4], in [6], in test [7], in [8] and in [10] was over 100 µM throughout. Also, the TGI in [11], in [12] and in [13] was over 100 µM throughout.

Take `COc1ccc2c(c1)C(=O)/C(=C/c1ccccc1)C2`: the TGI in [3] and in test [5] was over 100 µM in each case.

With `O=c1n(Cc2ccccc2)c2ccccc2n1CC1CS1` (centres undefined), the TGI in test [2], in test [4], in test [6], in [7], in test [8] and in test [11] was over 100 µM throughout.

Take `O=C1CNC(=O)N1`: the TGI was over 520 µM in test [14]; over 1120 µM in [1]; over 630 µM in test [15]; over 1120 µM in test [2]; over 11.2 µM in [6]; over 1120 µM in test [7]. In addition, the TGI in test [8], in [16], in test [11], in test [12] and in [13] was over 1120 µM in each case.

Regarding `Nc1ccc(N=Nc2ccc(-c3ccc(N=Nc4c(S(=O)(=O)O)cc5cc(S(=O)(=O)O)c(N=Nc6ccc([N+](=O)[O-])cc6)c(N)c5c4O)cc3)cc2)c2cc(S(=O)(=O)O)ccc12`, the TGI in [2], in test [4], in test [6], in [7], in test [10] and in [11] was over 100 µM throughout. The TGI in [12] and in [13] was over 100 µM each time.

For `O=C(O)CSc1nc2ccccc2[nH]1`, the TGI in [3], in test [5], in [9] and in test [10] was over 100 µM each time.

Consider `COc1ccc(-c2nnc3c4ccccc4sn23)cc1`, for which the TGI in [1] was 83.9 µM; in test [2], over 100 µM; in test [4], over 100 µM; in test [7], over 100 µM; in [8] it was 93.8 µM; in test [11], over 100 µM. Moreover, the TGI in test [13] is over 100 µM.

Take `CCOC(=O)C(=NN(C)c1ncccc1N)C(=O)OCC`: the TGI is over 100 µM in test [3], over 100 µM in test [5], 62.7 µM in test [9] and 87.2 µM in test [10].

Regarding `[N-]=[N+]=NCC(=O)c1c[nH]c(=O)[nH]c1=O`, the TGI in [3], in [5], in test [9] and in test [10] was over 100 µM each time.

`CC1(C)CCCC2(C)[C@@H]1CC[C@]13C[C@](C)(CC[C@@H]21)[C@@H]3CO` (some centres undefined): the TGI in [17], in [2], in test [4], in [6], in [7] and in [8] was over 100 µM in each case. Moreover, the TGI in test [11], in test [12] and in [13] was over 100 µM in each case.

`C=C1CC2(C)CCC(OC(=O)C3(C)OC3C)C(C)(OC(C)=O)C2CC1=C(C)C` (centres undefined): the TGI in test [3], in [5] and in test [9] was over 100 µM throughout.

Take `COc1cc2c(OC)c3cc(C)oc(=O)c3c(O)c2c(O)c1-c1c(OC)cc2c(OC)c3cc(C)oc(=O)c3c(O)c2c1O`: the TGI in test [3] is over 100 µM; in [9], over 100 µM; in test [10], 60.8 µM.

With `CC12CCC3C(CCC4(O)C=CCCC34C=O)C1(O)CC(O)C2c1ccc(=O)oc1` (centres undefined), the TGI in [14] was 500 µM; in test [1], 0.371 µM; in [15], over 500 µM; in [2], 0.0712 µM; in [6], 0.158 µM; in test [7], 0.264 µM. Further, the TGI was 0.108 µM in test [16], 0.267 µM in test [11], 0.098 µM in test [12] and 0.97 µM in test [13].

Consider `COc1cc(CN(C)N2C(=O)c3cccc4cc([N+](=O)[O-])cc(c34)C2=O)cc(OC)c1OC`, for which the TGI in test [3], in test [5] and in test [9] was over 100 µM throughout.

The values above are taken from PubChem BioAssay (NCI).
